Assay results taken from ChEMBL document CHEMBL1201862, “PubChem BioAssay data set” (2004).
Active and inactive are the calls of the source. For most assays here, no stated cut-off is given here; in the data, actives have a measured EC50 and inactives only a lower limit.

Experiments:
HEK293 [1] = assay: inhibition of NOD1-driven NF-kB reporter – cell-based, luminescence, uHTS, primary screen (AID 1578); assay type: functional; settings: Homo sapiens
[2] = tested on: Streptococcus sp. 'group A'; assay: Streptococcus pyogenes SK(-)GAS viability under kanamycin – luminescence, BacTiterGlo, confirmation, counter-screen for streptokinase expression inhibitor project, dose response (AID 1900); assay type: functional, organism-based
BJ [3] = assay: BJ-TERT fibroblast viability loss – cell-based, RAS-independent, luminescence, dose response (AID 1933); assay type: functional; settings: Homo sapiens
HEK293 [4] = assay: cells; assay type: functional, cell-based; settings: Homo sapiens
cells [5] = assay type: functional, cell-based
BJ [6] = assay: cells; assay type: functional, cell-based; settings: Homo sapiens
HEK293 [7] = assay: cells; assay type: functional, cell-based; settings: Homo sapiens; remark: listed apart in the source
[8] = target: Nucleotide-binding oligomerization domain-containing protein 2 (Homo sapiens, UniProt Q9HC29); assay: inhibition of NOD2-driven NF-kB reporter – cell-based, luminescence, uHTS, HEK293 (AID 1566); assay type: functional
Chain of Nucleotide-binding oligomerization domain-containing protein 2 (Q9HC29 whole entry, the tested form may be a part): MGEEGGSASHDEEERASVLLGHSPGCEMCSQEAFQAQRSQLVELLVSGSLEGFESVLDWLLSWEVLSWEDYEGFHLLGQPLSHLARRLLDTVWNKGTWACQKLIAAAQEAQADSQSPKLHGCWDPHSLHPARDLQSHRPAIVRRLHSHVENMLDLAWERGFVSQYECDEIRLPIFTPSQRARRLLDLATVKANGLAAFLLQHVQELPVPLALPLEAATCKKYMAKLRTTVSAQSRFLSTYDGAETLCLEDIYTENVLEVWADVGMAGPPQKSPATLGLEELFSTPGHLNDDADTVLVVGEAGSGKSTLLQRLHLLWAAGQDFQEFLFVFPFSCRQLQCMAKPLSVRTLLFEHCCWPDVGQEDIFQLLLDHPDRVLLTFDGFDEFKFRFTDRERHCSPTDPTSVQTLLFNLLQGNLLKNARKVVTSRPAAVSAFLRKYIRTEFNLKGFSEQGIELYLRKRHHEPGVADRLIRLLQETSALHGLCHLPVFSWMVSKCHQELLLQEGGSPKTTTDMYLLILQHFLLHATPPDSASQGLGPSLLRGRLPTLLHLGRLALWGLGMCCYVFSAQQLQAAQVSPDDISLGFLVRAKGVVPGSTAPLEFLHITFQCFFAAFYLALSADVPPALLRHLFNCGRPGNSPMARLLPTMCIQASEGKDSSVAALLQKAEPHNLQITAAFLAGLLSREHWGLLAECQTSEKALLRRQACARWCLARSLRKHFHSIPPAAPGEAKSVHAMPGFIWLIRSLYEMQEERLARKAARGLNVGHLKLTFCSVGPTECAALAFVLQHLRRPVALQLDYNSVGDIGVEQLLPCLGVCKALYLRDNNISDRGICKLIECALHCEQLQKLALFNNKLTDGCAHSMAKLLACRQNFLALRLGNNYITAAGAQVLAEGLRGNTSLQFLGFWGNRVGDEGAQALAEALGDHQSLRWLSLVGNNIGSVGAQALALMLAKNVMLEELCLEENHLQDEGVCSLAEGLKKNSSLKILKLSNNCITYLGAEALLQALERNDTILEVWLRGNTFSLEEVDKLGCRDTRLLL

HEK293 [9] = assay: NOD2 signaling inhibitors in MDP-stimulated cells, cell-based, uHTS, luminescence (AID 2001); assay type: functional; settings: Homo sapiens
[10] = Trypanosoma cruzi growth suppression in host cells – NIH3T3 host cells, beta-gal luminescence, confirmation (AID 2044); assay type: functional, cell-based;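 further: intracellular parasites grown in NIH/3T3 mouse fibroblasts as host cells; luminescent beta-galactosidase reporter signal from transgenic T. cruzi replicating inside host cells; inhibitors lower the luminescence signal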
HEK293 [11] = assay: cells; assay type: functional, cell-based; settings: Homo sapiens; remark: listed apart in the source
[12] = Luminescence-based dose response cell-based high throughput screening assay for cytotoxic compounds using the IEC-6 intestinal epithelial cell line. [Related pubchem assays: 1858 (Summary AID.), 1825 (Counterscreen.), 1907 (Confirmation screen.)]; assay type: functional
cells [13] = assay type: functional, cell-based; remark: listed apart in the source
[14] = NIH3T3 cell viability loss – ATP luminescence, mouse fibroblasts, counter-screen, dose response (AID 2010); assay type: functional, cell-based;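 further: cells exposed to compound for about 90 hours before reading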
BJ [15] = assay: BJ-TERT-LT-ST fibroblast viability loss – cell-based, RAS-independent, luminescence, dose response (AID 1935); assay type: functional; settings: Homo sapiens;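 further: BJ fibroblasts immortalized with TERT plus LT and ST oncogenes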
[16] = DRD fibroblast viability loss – cell-based, non-viral oncogenic, luminescence, dose response (AID 1934); assay type: functional; settings: Homo sapiens
Streptococcus = assay: GAS UMAA2166 growth inhibition – luminescence, BacTiterGlo, counter-screen for streptokinase expression inhibitor project, dose response (AID 1915); assay type: functional, organism-based;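 further: potency for reduction of bacterial viability or growth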
HEK293 [17] = assay: EBV LMP1 TES2 canonical NF-kB signalling blockers – cell-based, HEK293, luciferase, cherry-pick, dose response (AID 588343); assay type: functional; settings: Homo sapiens
[18] = reduction of Shn3 3'UTR-driven luciferase in osteoblasts – cell-based, Clone20 osteoblasts, firefly luciferase, cherry-picked, dose response (AID 624132); assay type: functional;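 further: firefly luciferase luminescence from reporter carrying the Shn3 3'UTR in osteoblasts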
[19] = loss of viability in HepG2 cells – cell-based, CellTiter-Glo, cherry-picked, cytotoxicity control for Shn3 inhibitor project, dose response (AID 624134); assay type: functional
[20] = non-specific 3'UTR reporter inhibition in Clone20-Shn3RL – cell-based, Renilla luciferase, cherry-picked, counter-screen for Shn3 inhibitor project, dose response (AID 624133); assay type: functional

CC(=O)NC(c1ccc(Cl)cc1Cl)c1ccc2cccnc2c1O (stereo unspecified)
EC50 (HEK293 [1]): > 20 µM (inactive)
EC50 [2]: 4.98 µM (active)
EC50 (BJ [3]): 0.837 µM (active)
IC50 (HEK293 [4]): 12 µM (active)
EC50 (cells [5]): 4.6 µM (active)
EC50 (BJ [6]): 6.93 µM (active)
IC50 (HEK293 [7]): > 20 µM (inactive)
EC50 [8]: > 20 µM (inactive)
IC50 (HEK293 [9]): > 20 µM (inactive)
EC50 [10]: 0.163 µM (active)
IC50 (HEK293 [11]): > 20 µM (inactive)
IC50 [12]: 0.386 µM (active)
EC50 (cells [13]): > 350 µM (not active)
EC50 [14]: 0.192 µM (active)
EC50 (BJ [15]): 2.82 µM (inconclusive)
EC50 [16]: 0.95 µM (active)
EC50 (Streptococcus): 6.93 µM (active)
AC50 (HEK293 [17]): 4.24 µM (active)
AC50 [18]: 0.465 µM (active)
AC50 [19]: 0.764 µM (active)
AC50 [20]: 0.778 µM (active)
